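Briefly, cells in 96-well plates were exposed to five compound concentrations for 48 h, and endpoints were estimated by linear interpolation. TGI: total growth inhibition.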
What was measured:
Experiment in all cases: NCI tumour cell line growth inhibition, 48 h
[1] = test system: UACC-62 melanoma
[2] = test system: SF-539 CNS
[3] = test system: IGROV1 ovarian
[4] = test system: RPMI-8226 leukemia
[5] = test system: MDA-N
[6] = test system: T-47D breast
[7] = test system: PC-3 prostate
[8] = test system: SK-MEL-2 melanoma
[9] = test system: OVCAR-8 ovarian
[10] = test system: OVCAR-5 ovarian
[11] = test system: KM12 colon
[12] = test system: 786-0 renal
[13] = test system: SK-MEL-28 melanoma
[14] = test system: SN12C renal
[15] = test system: U251 CNS
[16] = test system: M14 melanoma
[17] = test system: HCC-2998 colon
[18] = test system: EKVX NSCLC
[19] = test system: RXF 393 renal
[20] = test system: HCT-15 colon

Measured: TGI

CC1=NOC2(C1)C(=O)Nc1ccccc12 (stereo not given)
> 100 µM: [1] | [2] | [3] | [4] | [5] | [6] | [7] | [8] | [9] | [10] | [11] | [12] | [13] | [14] | [15] | [16] | [17] | [18] | [19] | [20]

CC(=O)N1CN2C(=O)CCC2c2ccccc21 (stereo not given)
> 100 µM: [1] | [2] | [3] | [4] | [5] | [6] | [7] | [8] | [9] | [10] | [11] | [12] | [13] | [14] | [15] | [16] | [17] | [18] | [19] | [20]

Reference: PubChem BioAssay (NCI)
